Source: publication PMC12040969, “Design, synthesis, in silico studies, and apoptotic antiproliferative activity of novel thiazole-2-acetamide derivatives as tubulin polymerization inhibitors” (Frontiers in Chemistry, 2025)
Values joined by “and” are separate entries in the source; they are usually repeats but may differ in a detail not shown here. Identical values can stand only once.

Columns and labels:
[1] = system: Bax in MDAMB-231 cancer cell line; assay: Bax level assay; type: cell-based, human; details: MDAMB-231 cells
Text: (§1) […]. Supplementary Appendix A provides more information.

[2] = system: colon - HCT-116; assay: Antiproliferative assay (MTT) HCT-116; details: for IC50: read-out: Antiproliferative activity IC50 ± SEM (µM) HCT-116, HCT-116, MTT
[3] = system: breast - MCF-7; assay: Antiproliferative assay (MTT) MCF-7; details: for IC50: read-out: Antiproliferative activity IC50 ± SEM (µM) MCF-7, MCF-7, MTT
[4] = Cell viability assay (MTT), normal cells; type: cell-based; details: human, MCF-10A normal mammary gland epithelial cells, four-day incubation
[5] = system: Caspase-9 in MDAMB-231 cancer cell line; assay: Caspase-9 activation assay; type: cell-based, human; details: MDAMB-231 cells
Protocol: […]. Compound 10o was the least efficient derivative as caspase-9 activators (0.90 ng/mL).
as §1

[6] = system: Bcl-2 in MDAMB-231 cancer cell line; assay: Bcl-2 level assay; type: cell-based, human; details: MDAMB-231 cells
Text: as §1

[7] = system: Caspase-3 in MDAMB-231 cancer cell line; assay: Caspase-3 activation assay; type: cell-based, human; details: MDAMB-231 cells
Text: as §1

[8] = system: prostatic - PC-3; assay: Antiproliferative assay (MTT) PC-3; details: for IC50: read-out: Antiproliferative activity IC50 ± SEM (µM) PC-3, PC-3, MTT
[9] = system: tubulin; assay: Tubulin polymerization inhibition assay (Cytoskeleton kit); details: for Tub %inh: 30 min, YB-EGY run; for Tub K.Activity: EC = 120, YB-EGY run; for IC50: read-out: Tubulin inhibition IC50 ± SEM, triplicate for each tested concentration;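 as to all read-outs here: Cell-free tubulin polymerization read by fluorescent reporter enhancement over a 30 min reaction, with the compound-free kit control taken as 100% activity and inhibition relative to it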
[10] = system: four human cancer cell lines (HCT-116, PC-3, MCF-7, MDAMB-231); assay: Antiproliferative assay, mean of four cell lines (GI50); details: for Reduced potency compared to doxorubicin (GI50) / Reduced potency compared to sorafenib (GI50): GI50 ratio; for IC50: Homo sapiens, read-out: GI50 (average IC50)
[11] = system: - MDAMB-231; assay: Antiproliferative assay (MTT) MDAMB-231
[12] = system: pancreatic - MDAMB-231; assay: Antiproliferative assay (MTT) MDAMB-231; details: read-out: Antiproliferative activity IC50 ± SEM (µM) MDAMB-231; MDAMB-231, MTT

Compound: Cc1nc(SCC(=O)Nc2nc(-c3ccccc3)cs2)sc1C(=O)/C=C/c1ccccc1 [Compound 10a, (E)-2-((5-cinnamoyl-4-methylthiazol-2-yl)thio)-N-(4-phenylthiazol-2-yl)acetamide]
- Bax Conc [1]: 305 pg/mL and 305 ± 8 pg/mL
- IC50 [2]: 8 ± 0.7 µM
- IC50 [3]: 4 ± 0.2 µM
- viability at 96 h, 50 µM [4]: 87%
- Caspase-9 Conc [5]: 1.60 ng/mL and 1.60 ± 0.10 ng/mL
- Bcl-2 Conc [6]: 0.90 ng/mL
- Caspase-3 Conc [7]: 625 ± 5 pg/mL
- Higher efficacy than sorafenib, PC-3 ([8]; PC-3 prostate cancer cell line): 1.7 fold
- IC50 [8]: 7 ± 0.6 µM
- Tub %inh ([9]; conc 0.1 (unit not given)): 16.5%
- Tub K.Activity ([9]; conc 0.1 (unit not given)): 100.18
- Tub %inh ([9]; conc 1 (unit not given)): 39.4%
- Tub K.Activity ([9]; conc 1 (unit not given)): 72.71
- Tub %inh ([9]; conc 10 (unit not given)): 60.5%
- Tub K.Activity ([9]; conc 10 (unit not given)): 47.391
- Tub %inh ([9]; conc 50 (unit not given)): 78.9%
- Tub K.Activity ([9]; conc 50 (unit not given)): 25.374
- Tub %inh ([9]; conc 100 (unit not given)): 92.7%
- Tub K.Activity ([9]; conc 100 (unit not given)): 8.7594

Compound: Cc1nc(SCC(=O)Nc2nccs2)sc1C(=O)/C=C/c1ccc(Cl)cc1 [Compound 13b, (E)-2-((5-(3-(4-chlorophenyl)acryloyl)-4-methylthiazol-2-yl)thio)-N-(thiazol-2-yl)acetamide]
- Average of Relative viability of cells (%) ([2]; HCT-116, 1.56 µM): 100%
- Average of Relative viability of cells (%) ([2]; HCT-116, 3.125 µM): 92.7%
- Average of Relative viability of cells (%) ([2]; HCT-116, 6.25 µM): 73.3%
- Average of Relative viability of cells (%) ([2]; HCT-116, 12.5 µM): 53.2%
- Average of Relative viability of cells (%) ([2]; HCT-116, 25 µM): 39.5%
- Average of Relative viability of cells (%) ([2]; HCT-116, 50 µM): 27.4%
- Average of Relative viability of cells (%) ([2]; HCT-116, 100 µM): 14.3%
- IC50 [2]: 17 ± 1.4 µM
- Reduced potency compared to doxorubicin (GI50) [10]: at least 2.5 fold
- Reduced potency compared to sorafenib (GI50) [10]: ≥ 1.5 fold
- IC50 [10]: 12 µM
- Average of Relative viability of cells (%) ([3]; MCF-7, 1.56 µM): 97.8%
- Average of Relative viability of cells (%) ([3]; MCF-7, 3.125 µM): 83.5%
- Average of Relative viability of cells (%) ([3]; MCF-7, 6.25 µM): 57.1%
- Average of Relative viability of cells (%) ([3]; MCF-7, 12.5 µM): 39.3%
- Average of Relative viability of cells (%) ([3]; MCF-7, 25 µM): 22.6%
- Average of Relative viability of cells (%) ([3]; MCF-7, 50 µM): 14.7%
- Average of Relative viability of cells (%) ([3]; MCF-7, 100 µM): 8.2%
- IC50 [3]: 9 ± 0.7 µM
- viability at 96 h, 50 µM [4]: 87%
- Average of Relative viability of cells (%) ([11]; MDAMB-231, 1.56 µM): 91.7%
- Average of Relative viability of cells (%) ([11]; MDAMB-231, 3.125 µM): 68.9%
- Average of Relative viability of cells (%) ([11]; MDAMB-231, 6.25 µM): 60.5%
- Average of Relative viability of cells (%) ([11]; MDAMB-231, 12.5 µM): 34.6%
- Average of Relative viability of cells (%) ([11]; MDAMB-231, 25 µM): 26.3%
- Average of Relative viability of cells (%) ([11]; MDAMB-231, 50 µM): 17.4%
- Average of Relative viability of cells (%) ([11]; MDAMB-231, 100 µM): 9.2%
- IC50 [12]: 8 ± 0.7 µM
- Average of Relative viability of cells (%) ([8]; PC-3, 1.56 µM): 100%
- Average of Relative viability of cells (%) ([8]; PC-3, 3.125 µM): 86.4%
- Average of Relative viability of cells (%) ([8]; PC-3, 6.25 µM): 69.2%
- Average of Relative viability of cells (%) ([8]; PC-3, 12.5 µM): 45.8%
- Average of Relative viability of cells (%) ([8]; PC-3, 25 µM): 33.7%
- Average of Relative viability of cells (%) ([8]; PC-3, 50 µM): 25.3%
- Average of Relative viability of cells (%) ([8]; PC-3, 100 µM): 17.1%
- IC50 [8]: 14 ± 1.2 µM
- Tub %inh ([9]; conc 0.1 (unit not given)): 15.2%
- Tub K.Activity ([9]; conc 0.1 (unit not given)): 101.7
- Tub %inh ([9]; conc 1 (unit not given)): 32.3%
- Tub K.Activity ([9]; conc 1 (unit not given)): 81.254
- Tub %inh ([9]; conc 10 (unit not given)): 54.2%
- Tub K.Activity ([9]; conc 10 (unit not given)): 54.918
- Tub %inh ([9]; conc 50 (unit not given)): 76.9%
- Tub K.Activity ([9]; conc 50 (unit not given)): 27.751
- Tub %inh ([9]; conc 100 (unit not given)): 92.3%
- Tub K.Activity ([9]; conc 100 (unit not given)): 9.196
- IC50 [9]: 3.73 ± 0.11 µM

Compound: Cc1nc(SCC(=O)Nc2nccs2)sc1C(=O)/C=C/c1ccc(F)cc1 [Compound 13c, (E)-2-((5-(3-(4-fluorophenyl)acryloyl)-4-methylthiazol-2-yl)thio)-N-(thiazol-2-yl)acetamide]
- Average of Relative viability of cells (%) ([2]; HCT-116, 1.56 µM): 100%
- Average of Relative viability of cells (%) ([2]; HCT-116, 3.125 µM): 92.6%
- Average of Relative viability of cells (%) ([2]; HCT-116, 6.25 µM): 73.1%
- Average of Relative viability of cells (%) ([2]; HCT-116, 12.5 µM): 51.3%
- Average of Relative viability of cells (%) ([2]; HCT-116, 25 µM): 42.2%
- Average of Relative viability of cells (%) ([2]; HCT-116, 50 µM): 29.9%
- Average of Relative viability of cells (%) ([2]; HCT-116, 100 µM): 16.1%
- IC50 [2]: 18 ± 1.4 µM
- Reduced potency compared to doxorubicin (GI50) [10]: at least 2.5 fold
- Reduced potency compared to sorafenib (GI50) [10]: ≥ 1.5 fold
- IC50 [10]: 26 µM
- Average of Relative viability of cells (%) ([3]; MCF-7, 1.56 µM): 100%
- Average of Relative viability of cells (%) ([3]; MCF-7, 3.125 µM): 96.3%
- Average of Relative viability of cells (%) ([3]; MCF-7, 6.25 µM): 83.0%
- Average of Relative viability of cells (%) ([3]; MCF-7, 12.5 µM): 68.1%
- Average of Relative viability of cells (%) ([3]; MCF-7, 25 µM): 51.6%
- Average of Relative viability of cells (%) ([3]; MCF-7, 50 µM): 36.7%
- Average of Relative viability of cells (%) ([3]; MCF-7, 100 µM): 21.7%
- IC50 [3]: 28 ± 1.8 µM
- viability at 96 h, 50 µM [4]: 86%
- Average of Relative viability of cells (%) ([11]; MDAMB-231, 1.56 µM): 100%
- Average of Relative viability of cells (%) ([11]; MDAMB-231, 3.125 µM): 93.3%
- Average of Relative viability of cells (%) ([11]; MDAMB-231, 6.25 µM): 71.6%
- Average of Relative viability of cells (%) ([11]; MDAMB-231, 12.5 µM): 54.8%
- Average of Relative viability of cells (%) ([11]; MDAMB-231, 25 µM): 50.1%
- Average of Relative viability of cells (%) ([11]; MDAMB-231, 50 µM): 38.9%
- Average of Relative viability of cells (%) ([11]; MDAMB-231, 100 µM): 19.6%
- IC50 [12]: 23 ± 1.7 µM
- Average of Relative viability of cells (%) ([8]; PC-3, 1.56 µM): 100%
- Average of Relative viability of cells (%) ([8]; PC-3, 3.125 µM): 99.1%
- Average of Relative viability of cells (%) ([8]; PC-3, 6.25 µM): 87.9%
- Average of Relative viability of cells (%) ([8]; PC-3, 12.5 µM): 67.7%
- Average of Relative viability of cells (%) ([8]; PC-3, 25 µM): 54.6%
- Average of Relative viability of cells (%) ([8]; PC-3, 50 µM): 42.1%
- Average of Relative viability of cells (%) ([8]; PC-3, 100 µM): 28.8%
- IC50 [8]: 34 ± 2.1 µM
- Tub %inh ([9]; conc 0.1 (unit not given)): 6.12%
- Tub K.Activity ([9]; conc 0.1 (unit not given)): 112.66
- Tub %inh ([9]; conc 1 (unit not given)): 27.4%
- Tub K.Activity ([9]; conc 1 (unit not given)): 87.115
- Tub %inh ([9]; conc 10 (unit not given)): 48.8%
- Tub K.Activity ([9]; conc 10 (unit not given)): 61.436
- Tub %inh ([9]; conc 50 (unit not given)): 71.2%
- Tub K.Activity ([9]; conc 50 (unit not given)): 34.549
- Tub %inh ([9]; conc 100 (unit not given)): 90.8%
- Tub K.Activity ([9]; conc 100 (unit not given)): 10.995
- IC50 [9]: 6.05 ± 0.18 µM

Compound: CN[C@@H]1C[C@H]2O[C@@](C)([C@@H]1OC)n1c3ccccc3c3c4c(c5c6ccccc6n2c5c31)C(=O)NC4 [Staurosporine, reference compound]
- Bax Conc [1]: 280 ± 7 pg/mL
- Bax Fold change ([1]; relative to untreated control): 35 fold
- Bax Conc ([1]; listed as staurosporine): 280 pg/mL
- Caspase-9 Conc [5]: 1.30 ± 0.10 ng/mL
- Caspase-9 Fold change ([5]; relative to untreated control): 13 fold
- Caspase-9 Conc ([5]; listed as staurosporine): 1.30 ng/mL
- Bcl-2 Conc [6]: 1.10 ng/mL
- Bcl-2 Fold reduction ([6]; relative to untreated control): 5 fold
- Caspase-3 Conc [7]: 510 ± 4 pg/mL
- Caspase-3 Fold change ([7]; relative to untreated control): 8 fold
